Data on eleven molecules can be found in ChEMBL document CHEMBL1201862, “PubChem BioAssay data set” (2004).

Among the test systems are MDA-MB-435; NCI/ADR-RES; BT-549; SW-620; HCC 2998; EKVX; SF-268; MCF7; SNB-75; IGROV-1; HT-29; COLO 205; KM12; M14; MDA-MB-231; SK-MEL-28; K562; UACC-62; MOLT-4; SK-OV-3.
What all share (assay): inhibition of tumour cell growth, NCI panel, 48 h

Structures are written as SMILES.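 Protocol summary: plate cells (96-well), add compound at 5 concentrations, incubate 48 h, interpolate endpoints linearly. The concentration for 50% growth inhibition is given as GI50.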 Active and inactive are the calls of the source. Rule as the data show it: active = GI50 up to about 1.1 µM and inactive = higher. Some results are limits rather than exact numbers.

In the case of `COc1ccc(/C=N\NC(=O)Nc2cccc3ccccc23)cc1`, the GI50 with MDA-MB-435 is 4.06 µM (inactive); in the assay on NCI/ADR-RES, 22 µM (inactive); with BT-549 it was 29.9 µM (inactive); in the assay with SW-620, 51.6 µM (inactive); in the assay on HCC 2998, 47.5 µM (inactive); in the assay with EKVX, 26.9 µM (inactive). Also, the GI50 in the assay on SF-268 is 17.7 µM (inactive); with MCF7, 4.44 µM (inactive); with SNB-75, 9.98 µM (inactive); in the assay with IGROV-1, 17.3 µM (inactive); in the assay with HT-29 it was 8.97 µM (inactive); with COLO 205, > 100 µM (inactive). Moreover, the GI50 in the assay with KM12 is 11.7 µM (inactive); in the assay with M14, 35.4 µM (inactive); in the assay with MDA-MB-231, 20.5 µM (inactive); with SK-MEL-28, > 100 µM (inactive).
Take `CN(C)CCNC(=O)c1cccc(CO)c1[N+](=O)[O-]`: the GI50 with MDA-MB-435, with K562, in the assay on UACC-62, in the assay on NCI/ADR-RES, in the assay with BT-549 and in the assay on MOLT-4 was > 100 µM (inactive) each time. For the same molecule, the GI50 with SW-620 is > 100 µM (inactive); in the assay with HCC 2998, > 100 µM (inactive); in the assay with SF-268, > 100 µM (inactive); in the assay with MCF7, > 100 µM (inactive); in the assay on SNB-75, 75 µM (inactive); with IGROV-1, > 100 µM (inactive). The GI50 in the assay on HT-29, in the assay on SK-OV-3, in the assay with COLO 205, in the assay with KM12, with M14 and in the assay with MDA-MB-231 was > 100 µM (inactive) in each case. Also, the GI50 in the assay on SK-MEL-28 is > 100 µM (inactive).
Turning to `CC(SC(=S)N1CCCCC1)C(=O)Nc1nnc(-c2ccc(Cl)cc2)o1` (configuration not stated), the GI50 in the assay with MDA-MB-435 is 34.1 µM (inactive); in the assay with K562, 41.4 µM (inactive); in the assay on UACC-62, 25.2 µM (inactive); in the assay with NCI/ADR-RES, 17.5 µM (inactive); in the assay on BT-549, 51.2 µM (inactive); in the assay with SW-620, 36.2 µM (inactive). Further, the GI50 in the assay with HCC 2998 is 34.8 µM (inactive); in the assay with SF-268, 17.5 µM (inactive); with MCF7, 25.8 µM (inactive); with SNB-75, 20.1 µM (inactive); in the assay with IGROV-1, 32 µM (inactive); in the assay with HT-29, 23 µM (inactive). In addition, the GI50 is 21.5 µM (inactive) in the assay on SK-OV-3; 34.9 µM (inactive) in the assay with COLO 205; 20.1 µM (inactive) in the assay on M14; 26.7 µM (inactive) with MDA-MB-231; 63.7 µM (inactive) in the assay on SK-MEL-28.
As to `CC(=O)c1cccc(Nc2nc3ccccc3c3occc23)c1`, the GI50 with MDA-MB-435 was 33.3 µM (inactive); in the assay on K562, > 100 µM (inactive); with NCI/ADR-RES, 23 µM (inactive); in the assay on BT-549 it was 15.2 µM (inactive); with MOLT-4, > 100 µM (inactive); in the assay on HCC 2998, 46.1 µM (inactive). Also, the GI50 in the assay on EKVX was 22 µM (inactive); with SF-268 it was 22.2 µM (inactive); with MCF7, 25.1 µM (inactive); in the assay on SNB-75, 22.7 µM (inactive); in the assay on HT-29, 6.22 µM (inactive); in the assay on SK-OV-3 it was 17.8 µM (inactive). Also, the GI50 in the assay on COLO 205 is > 100 µM (inactive); in the assay on KM12, 49.7 µM (inactive); with M14, 35.2 µM (inactive); with MDA-MB-231, 24.8 µM (inactive); in the assay with SK-MEL-28, 27.3 µM (inactive).
Take `O=C(c1ccco1)N(C(=S)OC12CC3CC(CC(C3)C1)C2)c1ccccc1`: the GI50 in the assay with MDA-MB-435 is 28.9 µM (inactive); in the assay with K562, 28.6 µM (inactive); with UACC-62, 23.4 µM (inactive); with NCI/ADR-RES, 28.6 µM (inactive); in the assay on BT-549 it was 34.5 µM (inactive); with MOLT-4, 24.4 µM (inactive). The GI50 in the assay on SW-620 is 29 µM (inactive); in the assay with HCC 2998, 25.1 µM (inactive); in the assay with EKVX it was 18.8 µM (inactive); with SF-268, 32.9 µM (inactive); with MCF7 it was 26.2 µM (inactive); in the assay with SNB-75, 48.5 µM (inactive). The GI50 was 33.5 µM (inactive) in the assay with HT-29; 23.4 µM (inactive) in the assay with SK-OV-3; 16.4 µM (inactive) in the assay on COLO 205; 31.2 µM (inactive) with KM12; 20.9 µM (inactive) in the assay with M14; 31.8 µM (inactive) in the assay on MDA-MB-231. In addition, the GI50 in the assay on SK-MEL-28 was 37.9 µM (inactive).
In the case of `Cc1ccc2c3c(cnc2n1)C(=O)OCCN3C`, the GI50 with MDA-MB-435, in the assay on K562, in the assay on UACC-62, with NCI/ADR-RES, in the assay on BT-549 and in the assay with MOLT-4 was > 100 µM (inactive) in each case. The GI50 in the assay with SW-620, with HCC 2998, in the assay with EKVX, in the assay with SF-268, in the assay with MCF7 and in the assay with IGROV-1 was > 100 µM (inactive) in each case. Besides, the GI50 in the assay with HT-29, with COLO 205, in the assay with KM12, in the assay with M14, with MDA-MB-231 and with SK-MEL-28 was > 100 µM (inactive) throughout.
As for `O=C1c2ccccc2-c2c1c(-c1ccc(O)cc1O)nc1ccc3ccccc3c21`, the GI50 with MDA-MB-435, with K562, with UACC-62, in the assay with NCI/ADR-RES, in the assay with BT-549 and in the assay with MOLT-4 was > 100 µM (inactive) in each case. Moreover, the GI50 with SW-620 is > 100 µM (inactive); in the assay with HCC 2998 it was > 100 µM (inactive); in the assay on EKVX, > 100 µM (inactive); in the assay with SF-268, > 100 µM (inactive); with MCF7, 79.4 µM (inactive); with SNB-75, > 100 µM (inactive). Besides, the GI50 with HT-29 was > 100 µM (inactive); in the assay on SK-OV-3 it was > 100 µM (inactive); in the assay with COLO 205 it was > 100 µM (inactive); with KM12 it was > 100 µM (inactive); in the assay with M14, > 100 µM (inactive); with MDA-MB-231 it was 27.8 µM (inactive). In the assay on SK-MEL-28, the GI50 was > 100 µM (inactive).
For the molecule `Clc1ccc(-c2nnc3sc4nc5ccccc5c-4nn23)c(Cl)c1`, the GI50 was 32.6 µM (inactive) with MDA-MB-435; 31.8 µM (inactive) in the assay on K562; 33.5 µM (inactive) in the assay on UACC-62; 34.4 µM (inactive) with NCI/ADR-RES; 28.9 µM (inactive) with BT-549; 36.8 µM (inactive) with MOLT-4. The GI50 in the assay on SW-620 was 46 µM (inactive); in the assay on HCC 2998, 28.7 µM (inactive); with EKVX, 28.8 µM (inactive); with SF-268 it was 33.7 µM (inactive); in the assay on MCF7, 43.3 µM (inactive); with SNB-75 it was 71 µM (inactive). The GI50 with HT-29 was 55.7 µM (inactive); with SK-OV-3 it was 95.1 µM (inactive); in the assay on COLO 205, 56.4 µM (inactive); with KM12, 37.5 µM (inactive); with M14, 48.3 µM (inactive); in the assay on MDA-MB-231 it was 99.3 µM (inactive). For the same molecule, the GI50 with SK-MEL-28 was 43.9 µM (inactive).
On to `Cc1nc2ccc(F)cc2c2c1CCS2`, for which the GI50 was 35.8 µM (inactive) with MDA-MB-435; 34.6 µM (inactive) in the assay with K562; 81.7 µM (inactive) in the assay on UACC-62; 95.1 µM (inactive) with NCI/ADR-RES; 54.8 µM (inactive) with BT-549; 38.1 µM (inactive) with MOLT-4. Also, the GI50 is > 100 µM (inactive) in the assay on SW-620; 58.1 µM (inactive) with HCC 2998; 26.2 µM (inactive) with EKVX; 40.6 µM (inactive) in the assay with SF-268; 56.4 µM (inactive) with MCF7; 38.6 µM (inactive) in the assay with SNB-75. Also, the GI50 is > 100 µM (inactive) in the assay on IGROV-1; 71.8 µM (inactive) in the assay with HT-29; 38.5 µM (inactive) in the assay with COLO 205; 64.9 µM (inactive) with KM12; 39.9 µM (inactive) with MDA-MB-231; 80.5 µM (inactive) with SK-MEL-28.
In the case of `CC(=O)O[C@H]1C(=O)[C@@]2(C)[C@H]([C@H](OC(=O)c3ccccc3)[C@]3(O)C[C@H](OC(=O)[C@H](O)[C@@H](NC(=O)c4ccc(N(C)C)cc4)c4ccccc4)C(C)=C1C3(C)C)[C@]1(OC(C)=O)CO[C@@H]1C[C@@H]2O`, the GI50 in the assay on MDA-MB-435 is < 0.005 µM (active); with K562 it was < 0.005 µM (active); in the assay with UACC-62 it was < 0.005 µM (active); in the assay on NCI/ADR-RES, 2.21 µM (inactive); in the assay with BT-549, 0.0188 µM (active); in the assay with MOLT-4, 0.00631 µM (active). In addition, the GI50 in the assay on SW-620 was < 0.005 µM (active); in the assay with HCC 2998, < 0.005 µM (active); in the assay with EKVX, 0.112 µM (active); in the assay on MCF7, < 0.005 µM (active); with SNB-75, < 0.005 µM (active); with IGROV-1, 0.00962 µM (active). Also, the GI50 with HT-29 is < 0.005 µM (active); in the assay on SK-OV-3, 0.0262 µM (active); in the assay with COLO 205 it was < 0.005 µM (active); in the assay with KM12, < 0.005 µM (active); with M14 it was < 0.005 µM (active); in the assay on MDA-MB-231, 0.0543 µM (active). Further, the GI50 with SK-MEL-28 is > 50 µM (inactive).
`CC(C)C[C@H](NC(=O)[C@H](Cc1cccc2ccccc12)NS(=O)(=O)c1cccc2cccnc12)B(O)O`: the GI50 was < 0.01 µM (active) with MDA-MB-435; < 0.0196 µM (active) with K562; 0.0223 µM (active) with UACC-62; 2.32 µM (inactive) in the assay with NCI/ADR-RES; < 0.0306 µM (active) with BT-549; < 0.01 µM (active) with MOLT-4. Further, the GI50 in the assay with SW-620 was < 0.0176 µM (active); with HCC 2998 it was 0.00219 µM (active); in the assay with EKVX it was 0.372 µM (active); in the assay on MCF7, < 0.0151 µM (active); with IGROV-1, < 0.0208 µM (active); with HT-29, < 0.0165 µM (active). Besides, the GI50 is 0.359 µM (active) in the assay with SK-OV-3, < 0.0243 µM (active) in the assay on COLO 205, 0.0432 µM (active) in the assay with KM12 and < 0.0149 µM (active) with MDA-MB-231.
